Source: patent US20210038559A1, “CANNABINOIDS AND DERIVATIVES FOR PROMOTING IMMUNOGENICITY OF TUMOR AND INFECTED CELLS” (priority 2018, published 2021)
Counter-ions that a name gives are not always drawn. Like-named read-outs stand apart in the source and are kept apart here.

Test system: MHC-I expression by COLO 205 cells
Assay: cells
Format: cell-based, human
Conditions: for fold induction at 35 µM: Homo sapiens, COLO 205, 48 h, read-out: Induction Fold
Description: A panel of synthetic cannabinoids (Cayman Chemical, #9002891) was tested for MHC class I-inducing capability in COLO 205 cells as described above. COLO 205 cells were treated with the compounds at a concentration of 35 μM and evaluated for cell surface MHC class I expression after 48 hours. Cells were harvested, stained with MHC-I mAb W6/32 (Thermo Fisher). MHC-I expression was determined by flow cytometry.

[1] = MHC-I expression, COLO 205 cells, compounds at 35 μM, 48 hours, flow cytometry (W6/32)

## O=C(Oc1cnc2ccccc2c1)c1cn(CC2CCCCC2)c2ccccc12 [Example 261, Quinolin-3-yl 1-(cyclohexylmethyl)-1H-indole-3-carboxylate]
[1]
  fold induction at 35 µM: 1.56

## CCCCCn1cc(C(=O)c2cc(Cl)cc3ccccc23)c2ccccc21 [Example 263, (3-chloronaphthalen-1-yl)(1-pentyl-1H-indol-3-yl)methanone, hydrate]
[1]
  fold induction at 35 µM: 1.56

## CCCCCn1cc(C(=O)c2cc(CC)cc3ccccc23)c2ccccc21 [Example 264, (3-ethyl-1-naphthalenyl)(1-pentyl-1H-indol-3-yl)-methanone]
[1]
  fold induction at 35 µM: 1.56

## CCCCCn1cc(C(=O)c2ccc(OC)c3ccccc23)c2ccccc21 [Example 265, (4-methoxy-1-naphthalenyl)(1-pentyl-1H-indol-3-yl)-methanone]
[1]
  fold induction at 35 µM: 1.55

## CCCCCN1C(=O)C(=NNC(=O)c2ccccc2)c2ccc(OC)cc21 [Example 266, 2Z-(1,2-dihydro-6-methoxy-2-oxo-1-pentyl-3H-indol-3-ylidene)hydrazide benzoic acid]
[1]
  Induction Fold: 1.55 Fold

## NC(=O)[C@H](Cc1ccccc1)NC(=O)c1cn(CCCCCF)c2ccccc12 [Example 267, (S)-N-(1-amino-1-oxo-3-phenylpropan-2-yl)-1-(5-fluoropentyl)-1H-indole-3-carboxamide]
[1]
  fold induction at 35 µM: 1.55

## COC(=O)[C@@H](NC(=O)c1nn(CCCC(C)F)c2ccccc12)C(C)C (stereo partly shown) [Example 268, methyl (1-(4-fluoropentyl)-1H-indazole-3-carbonyl)-1-valinate]
  Induction Fold: 1.55 Fold

## COC(=O)[C@@H](NC(=O)c1cn(Cc2ccc(F)cc2)c2ccccc12)C(C)(C)C [Example 269, N-[[1-[(4-fluorophenyl)methyl]-1H-indol-3-yl]carbonyl]-3-methyl-1-valine, methyl ester]
[1]
  Induction Fold: 1.54 Fold

## COC(=O)[C@@H](NC(=O)c1cn(Cc2ccc(F)cc2)c2ccccc12)C(C)C [Example 270, N-[[1-[(4-fluorophenyl)methyl]-1H-indol-3-yl]carbonyl]-1-valine, methyl ester]
[1]
  Induction Fold: 1.54 Fold

## CCC(C)Cn1cc(C(=O)c2ccc3ccccc3c2)c2ccccc21 (stereo not shown) [Example 271, (1-(2-methylbutyl)-1H-indol-3-yl)(naphthalen-2-yl)-methanone]
[1]
  fold induction at 35 µM: 1.54

## CCCCCn1cc(C(=O)N2CCN(C)CC2)c2ccccc21 [Example 273, (4-methylpiperazin-1-yl)(1-pentyl-1H-indol-3-yl)methanone, monohydrochloride]
[1]
  fold induction at 35 µM: 1.53

## CCCCCn1cc(C(=O)Oc2ccc3ccncc3c2)c2ccccc21 [Example 274, isoquinolin-7-yl 1-pentyl-1H-indole-3-carboxylate]
[1]
  fold induction at 35 µM: 1.52

## CCCCCn1cc(C(=O)c2cccc3cc(CC)ccc23)c2ccccc21 [Example 275, (6-ethylnaphthalen-1-yl)(1-pentyl-1H-indol-3-yl)methanone]
[1]
  fold induction at 35 µM: 1.52

## O=C(Oc1cccc2cccnc12)c1nn(Cc2ccc(F)cc2)c2ccccc12 [Example 276, quinolin-8-yl 1-(4-fluorobenzyl)-1H-indazole-3-carboxylate]
[1]
  fold induction at 35 µM: 1.51

## CN(C)C(=O)n1nnc(Cc2ccc(-c3ccccc3)cc2)n1 [Example 278, 5-([1,1′-biphenyl]-4-ylmethyl)-N,N-dimethyl-2H-tetrazole-2-carboxamide]
[1]
  fold induction at 35 µM: 1.49

## COC(=O)[C@@H](NC(=O)c1nn(CCCCCF)c2ccccc12)C(C)C [Example 279, N-[[1-(5-fluoropentyl)-1H-indazol-3-yl]carbonyl]-L-valine, methyl ester]
[1]
  Induction Fold: 1.49 Fold

## CC(C)(NC(=O)c1nn(CCCCC#N)c2ccccc12)c1ccccc1 [Example 281, 1-(4-cyanobutyl)-N-(1-methyl-1-phenylethyl)-1H-indazole-3-carboxamide]
[1]
  fold induction at 35 µM: 1.48

## CCCCn1cc(C(=O)c2ccc(OC)cc2)c2ccccc21 [Example 282, (4-methoxyphenyl)(1-butyl-1H-indol-3-yl)-methanone]
[1]
  fold induction at 35 µM: 1.47

## O=C(c1ccc(I)cc1)c1cn(CCCCCF)c2ccccc12 [Example 283, (1-(5-fluoropentyl)-1H-indol-3-yl)(4-iodophenyl)methanone]
[1]
  fold induction at 35 µM: 1.46

## CC(C)Cn1cc(C(=O)c2ccc3ccccc3c2)c2ccccc21 [Example 284, (1-isobutyl-1H-indol-3-yl)(naphthalen-2-yl)methanone]
[1]
  fold induction at 35 µM: 1.46

## CCCCCn1cc(C(=O)c2cccc3cc(Cl)ccc23)c2ccccc21 [Example 285, (6-chloronaphthalen-1-yl)(1-pentyl-1H-indol-3-yl)methanone]
[1]
  fold induction at 35 µM: 1.46

## O=C(Nc1cccc2ccccc12)c1cn(CCCCCF)c2ccccc12 [Example 286, 1-(5-fluoropentyl)-N-(naphthalen-1-yl)-1H-indole-3-carboxamide]
[1]
  fold induction at 35 µM: 1.45

## CN(C)C(=O)n1nnnc1Cc1ccc(-c2ccccc2)cc1 [Example 288, 5-([1,1′-biphenyl]-4-ylmethyl)-N,N-dimethyl-1H-tetrazole-1-carboxamide]
[1]
  fold induction at 35 µM: 1.45

## CC(C)(C)C(NC(=O)c1nn(CCCCCF)c2ccccc12)C(N)=O (stereo not shown) [Example 289, N-[1-(aminocarbonyl)-2,2-dimethylpropyl]-1-(5-fluoropentyl)-1H-indazole-3-carboxamide]
[1]
  fold induction at 35 µM: 1.44

## CC(C)[C@H](NC(=O)c1nn(CCCCCF)c2ccccc12)C(N)=O [Example 292, N-[(1S)-1-(aminocarbonyl)-2-methylpropyl]-1-(5-fluoropentyl)-1H-indazole-3-carboxamide]
[1]
  fold induction at 35 µM: 1.43

## CC(F)CCCn1nc(C(=O)NC(C(N)=O)C(C)C)c2ccccc21 (stereo not shown) [Example 293, N-(1-amino-3-methyl-1-oxobutan-2-yl)-1-(4-fluoropentyl)-1H-indazole-3-carboxamide]
[1]
  fold induction at 35 µM: 1.43

## CCCCCn1nc2ccccc2c1C(=O)Nc1cccc2ccccc12 [Example 294, N-(naphthalen-1-yl)-2-pentyl-2H-indazole-3-carboxamide]
[1]
  fold induction at 35 µM: 1.43

## COc1cccc2c(C(=O)N[C@@H]3C(C)(C)[C@@H]4CC[C@@]3(C)C4)c(C)n(CCN3CCOCC3)c12 [Example 295, 7-methoxy-2-methyl-1-[2-(4-morpholinyl)ethyl]-N-[(1S,2S,4R)-1,3,3-trimethylbicyclo[2.2.1]hept-2-yl]-1H-indole-3-carboxamide]
[1]
  fold induction at 35 µM: 1.43

## CCCC(F)Cn1cc(C(=O)Nc2cccc3ccccc23)c2ccccc21 (stereo not shown) [Example 296, 1-(2-fluoropentyl)-N-(naphthalen-1-yl)-1H-indole-3-carboxamide]
[1]
  fold induction at 35 µM: 1.43

## CC(C)(C)C(NC(=O)c1cn(CCCCCF)c2ccccc12)C(N)=O (stereo not shown) [Example 297, N-[1-(aminocarbonyl)-2,2-dimethylpropyl]-1-(5-fluoropentyl)-1H-indole-3-carboxamide]
[1]
  fold induction at 35 µM: 1.42

## CCCCCn1cc(C(=O)c2cccc3cc(OC)ccc23)c2ccccc21 [Example 300, (6-methoxy-1-naphthalenyl)(1-pentyl-1H-indol-3-yl)-methanone]
[1]
  fold induction at 35 µM: 1.42

## CCCCCCc1ccc(O)cc1OCCCCCCCCCCC(=O)NC1CC1 [Example 302, N-cyclopropyl-11-(2-hexyl-5-hydroxyphenoxy)-undecanamide]
[1]
  fold induction at 35 µM: 1.4

## CCCCCC1=C/C(=C\c2cccc3ccccc23)c2ccccc21 [Example 303, 1-[(E)-(3-pentyl-1H-inden-1-ylidene)methyl]-naphthalene]
[1]
  fold induction at 35 µM: 1.39

## CCCCCCC(C)(C)c1cc(OC)c(C2C=C(CO)C3CC2C3(C)C)c(OC)c1 (stereo not shown) [Example 304, 4-[4-(1,1-dimethylheptyl)-2,6-dimethoxyphenyl]-6,6-dimethyl-bicyclo[3.1.1]hept-2-ene-2-methanol]
  fold induction at 35 µM: 1.39

## CN1CCCCC(n2cc(C(=O)C3C(C)(C)C3(C)C)c3ccccc32)C1 (stereo not shown) [Example 305, (1-(1-methylazepan-3-yl)-1H-indol-3-yl)(2,2,3,3-tetramethylcyclopropyl)methanone]
[1]
  fold induction at 35 µM: 1.38

## O=C(NCc1ccccc1)c1cn(CCCCCF)c2ccccc12 [Example 306, 1-(5-fluoropentyl)-N-(phenylmethyl)-1H-indole-3-carboxamide]
[1]
  fold induction at 35 µM: 1.38

## CCCCCn1cc(C(=O)Nc2ccccc2)c2ccccc21 [Example 307, 1-pentyl-N-phenyl-1H-indole-3-carboxamide]
[1]
  fold induction at 35 µM: 1.38

## COc1ccc(C(=O)c2c(C)n(CCN3CCOCC3)c3ccccc23)cc1 [Example 308]
[1]
  fold induction at 35 µM: 1.38

## O=C(NC12CC3CC(CC(C3)C1)C2)c1nn(CCCCCF)c2ccccc12 [Example 309, N-((3s,5s,7s)-adamantan-1-yl)-1-(5-fluoropentyl)-1H-indazole-3-carboxamide]
[1]
  Induction Fold: 1.37 Fold

## COc1ccc(C(=O)c2c(C)n(CCN3CCOCC3)c3cc(Br)ccc23)cc1 [Example 310, [6-bromo-2-methyl-1-[2-(4-morpholinyl)ethyl]-1H-indol-3-yl](4-methoxyphenyl)-methanone]
[1]
  fold induction at 35 µM: 1.37

## O=C(Oc1cccc2cccnc12)c1nn(CCCCCF)c2ccccc12 [Example 311, 1-(5-fluoropentyl)-8-quinolinyl ester-1H-indazole-3-carboxylic acid]
[1]
  Induction Fold: 1.36 Fold

## CC(C)[C@H](NC(=O)c1cn(CCCCCF)c2ccccc12)C(N)=O [Example 312, N-[(1S)-1-(aminocarbonyl)-2-methylpropyl]-1-(5-fluoropentyl)-1H-indole-3-carboxamide]
[1]
  fold induction at 35 µM: 1.35

## CC(C)(NC(=O)c1cn(CCCCCF)c2ncccc12)c1ccccc1 [Example 313, 1-(5-fluoropentyl)-N-(2-phenylpropan-2-yl)-1H-pyrrolo[2,3-b] pyridine-3-carboxamide]
[1]
  fold induction at 35 µM: 1.33
